This note sets out measurements from patent US9303027B2 (dated 2016).

Counter-ions that a name gives are not always drawn.

`O=C(N[C@H](CN1CCCC1)c1ccccc1)C1(c2ccc3c(c2)NS(=O)(=O)O3)CC1` had a melting point of 239 to 241 °C.
Turning to `Cl.O=C(O)Cn1c(=O)oc2ccc(C3(C(=O)N[C@H](CN4CCCC4)c4ccccc4)CC3)cc21`, the melting point lay within 166 to 168 °C.
As for `O=CNc1cc(C2(C(=O)N[C@H](CN3CCCC3)c3ccccc3)CC2)ccc1O` (stereo in doubt), the figure is 175 to 177 °C; as for `O=C(N[C@H](CN1CCCC1)c1ccccc1)C1(c2ccc3ccc(=O)[nH]c3c2)CC1` (stereo in doubt), 101 to 103 °C; as for `O=C(N[C@H](CN1CCCC1)c1ccccc1)C1(c2ccc3c(c2)NS(=O)(=O)C3)CC1`, 138 to 140 °C.
To `O=C(O)COc1ccc(C2(C(=O)N[C@H](CN3CCCC3)c3ccccc3)CC2)cc1` (stereo in doubt) belongs 94 to 95 °C; to `O=C(N[C@H](CN1CCCC1)c1ccccc1)C1(c2ccc3[nH]c(=O)[nH]c3c2)CC1` (stereo in doubt), 207 to 209 °C; to `NC(=O)c1cccc([C@@H](CN2CCCC2)NC(=O)C2(c3ccc4oc(=O)[nH]c4c3)CC2)c1`, 139 to 141 °C.
To `Cc1cc(C2(C(=O)N[C@H](CN3CCCC3)c3ccccc3)CC2)ccc1NS(C)(=O)=O` (stereo in doubt) belongs 92 to 94 °C; to `O=C(N[C@H](CN1CCCC1)c1ccccc1)C1(c2ccc3[nH]c(=O)ccc3c2)CC1`, 171 to 172 °C.
`O=C(N[C@H](CN1CCCC1)c1cccc(O)c1)C1(c2ccc3oc(=O)[nH]c3c2)CC1`: the melting point was 132 to 134 °C.
As for `CS(=O)(=O)Nc1cc(C2(C(=O)N[C@H](CN3CCCC3)c3ccccc3)CC2)ccc1F` (stereo in doubt), the figure is 67 to 69 °C; as for `O=C(N[C@H](CN1CCCC1)c1ccccc1)C1(c2ccc3oc(=O)[nH]c3c2)CC1` (stereo in doubt), 142 to 144 °C.
To `CS(=O)(=O)Nc1cccc([C@@H](CN2CCCC2)NC(=O)C2(c3ccc4oc(=O)[nH]c4c3)CC2)c1` (stereo in doubt) belongs 114 to 116 °C; to `O=C(O)COc1cccc(C2(C(=O)N[C@H](CN3CCCC3)c3ccccc3)CC2)c1` (stereo in doubt), 124 to 125 °C; to `O=C(N[C@H](CN1CCCC1)c1cccc(-c2nn[nH]n2)c1)C1(c2ccc3oc(=O)[nH]c3c2)CC1`, 107 to 109 °C.
To `Cl.O=C(N[C@H](CN1CCCC1)c1ccccc1)C1(c2ccccc2)CCCCC1` belongs 204 to 205 °C; to `O=C(N[C@H](CN1CCCC1)c1ccccc1)C1(c2ccc3[nH]ncc3c2)CC1` (stereo in doubt), 82 to 83 °C.
As to `CS(=O)(=O)c1ccc(C2(C(=O)N[C@H](CN3CCCC3)c3ccccc3)CC2)cc1`, the melting point was 150 to 152 °C.
As for `CN(C(=O)C1(c2ccccc2)CCCCC1)[C@H](CN1CCCC1)c1ccccc1.Cl`, the figure is 232 to 233 °C; as for `C/C(=N/O)c1cc(C2(C(=O)N[C@H](CN3CCCC3)c3ccccc3)CC2)ccc1O` (stereo in doubt), 158.5 to 158.8 °C.
To `CS(=O)(=O)Nc1cc(C2(C(=O)N[C@H](CN3CCCC3)c3ccccc3)CC2)ccc1Cl` belongs 280 to 281 °C.
With `COc1cccc([C@@H](CN2CCCC2)NC(=O)C2(c3ccc4oc(=O)[nH]c4c3)CC2)c1`, the melting point was in the range of 92 to 94 °C.
To `N#Cc1cccc(COc2cccc([C@@H](CN3CCCC3)NC(=O)C3(c4ccc5oc(=O)[nH]c5c4)CC3)c2)c1` (stereo in doubt) belongs 129 to 130 °C; to `O=C(N[C@H](CN1CC[C@H](O)C1)c1ccccc1)C1(c2ccncc2)CC1`, 112 to 114 °C; to `CN(C(=O)C1(c2cnc3ccccc3c2)CC1)[C@H](CN1CCCC1)c1ccccc1.Cl`, 223 to 225 °C.
To `O=C(N[C@H](CN1CCCC1)c1ccccc1)C1(c2nc3ccccc3s2)CC1` belongs 97 to 99 °C; to `O=C(N[C@H](CN1CCCC1)c1ccccc1)C1(c2ccc3[nH]cnc3c2)CC1` (stereo in doubt), 127 to 129 °C.
To `CN(C)S(=O)(=O)c1ccccc1C1(C(=O)N[C@H](CN2CCCC2)c2ccccc2)CC1` belongs 80 to 81 °C; to `Cn1nnc2cc(C3(C(=O)N[C@H](CN4CCCC4)c4ccccc4)CC3)ccc21` (stereo in doubt), 78 to 80 °C; to `CS(=O)(=O)Nc1cc(C2(C(=O)N[C@H](CN3CCCC3)c3ccccc3)CC2)ccc1F.Cl` (stereo in doubt), 130 °C.
`CS(=O)(=O)Oc1ccc(C2(C(=O)N[C@H](CN3CC[C@H](O)C3)c3ccccc3)CC2)cc1.Cl` showed a melting point of 60 to 62 °C.
To `Nc1cccc([C@@H](CN2CCCC2)NC(=O)C2(c3ccc4oc(=O)[nH]c4c3)CC2)c1` (stereo in doubt) belongs 95 to 97 °C; to `Cl.O=C(N[C@H](CN1CCCC1)c1ccccc1)C1(c2cccc(O)c2)CC1`, 80 to 82 °C; to `Cl.O=C(N[C@H](CN1CCCC1)c1ccccc1)C1(c2ccccn2)CC1`, 107.1 to 107.3 °C.
As for `N#Cc1cccc([C@@H](CN2CCCC2)NC(=O)C2(c3ccc4oc(=O)[nH]c4c3)CC2)c1` (stereo in doubt), the figure is 106 to 108 °C; as for `O=C(N[C@H](CN1CCCC1)c1ccccc1)C1(c2cccc(-c3nnn[nH]3)c2)CC1` (stereo in doubt), 137 to 139 °C; as for `COC(=O)c1ccc(Cn2c(=O)oc3ccc(C4(C(=O)N[C@H](CN5CCCC5)c5cccc(O)c5)CC4)cc32)cc1`, 119 to 120 °C.
As for `CN(C(=O)C1(c2ccccc2)CCCC1)[C@H](CN1CCCC1)c1ccccc1.Cl`, the figure is 220 to 221 °C; as for `CS(=O)(=O)c1cccc(C2(C(=O)N[C@H](CN3CCCC3)c3ccccc3)CC2)c1.Cl`, 68 to 70 °C.
In turn, `CC(=O)c1cc(C2(C(=O)N[C@H](CN3CCCC3)c3ccccc3)CC2)ccc1O` (stereo in doubt) returned a melting point of 101.8 to 102.2 °C.
To `CS(=O)(=O)Nc1cccc(C2(C(=O)N[C@H](CN3CCCC3)C3CCCCC3)CC2)c1` belongs 201 to 202 °C; to `O=C(N[C@H](CN1CC[C@H](O)C1)c1ccccc1)C1(c2ccc3oc(=O)[nH]c3c2)CC1`, 142 to 144 °C; to `COc1ccc(C2(C(=O)N[C@H](CN3CCCC3)c3ccccc3)CC2)cc1NS(C)(=O)=O` (stereo in doubt), 103 to 105 °C.
To `NC(=O)c1ccc(C2(C(=O)N[C@H](CN3CCCC3)c3ccccc3)CC2)cc1` (stereo in doubt) belongs 201 °C.
To `O=C1Cc2ccc(C3(C(=O)N[C@H](CN4CCCC4)c4ccccc4)CC3)cc2N1` belongs 115 to 118 °C; to `Cl.O=C(N[C@H](CN1CCCC1)c1ccccc1)C1(c2cnc3ccccc3c2)CC1`, 176 to 178 °C; to `O=C(N[C@H](CN1CCCC1)c1ccccc1)C1(c2ccc3c(c2)C=CS(=O)(=O)N3)CC1`, 163 to 165 °C.
For `Cn1c(=O)oc2ccc(C3(C(=O)N[C@H](CN4CCCC4)c4ccccc4)CC3)cc21` (stereo in doubt), the melting point lay in the range of 96 to 98 °C.
To `CS(=O)(=O)Oc1cccc([C@@H](CN2CCCC2)NC(=O)C2(c3ccc4oc(=O)[nH]c4c3)CC2)c1` (as salt: trifluoroacetate) belongs 101 to 103 °C; to `COc1cccc([C@@H](CN2CC[C@H](O)C2)NC(=O)C2(c3ccc4oc(=O)[nH]c4c3)CC2)c1`, 125 to 127 °C; to `NC(=O)c1cccc(C2(C(=O)N[C@H](CN3CCCC3)c3ccccc3)CC2)c1` (stereo in doubt), 120 to 121 °C.
To `CN[C@H]1CCN(C[C@@H](NC(=O)C2(c3cccc(NS(C)(=O)=O)c3)CC2)c2ccccc2)C1` belongs 80.6 to 80.8 °C; to `CS(=O)(=O)Nc1ccc(C2(C(=O)N[C@H](CN3CCCC3)c3ccccc3)CC2)cn1`, 182.2 to 182.4 °C; to `O=C(N[C@H](CN1CC[C@H](O)C1)c1cccc([N+](=O)[O-])c1)C1(c2ccc3oc(=O)[nH]c3c2)CC1`, 224 to 226 °C.
As for `Cl.O=C(N[C@H](CN1CCCC1)c1ccccc1)C1(c2cccc(OCc3ccccc3)c2)CC1`, the figure is 118 to 120 °C; as for `CS(=O)(=O)Nc1cccc(C2(C(=O)N[C@H](CN3CC[C@H](N)C3)c3ccccc3)CC2)c1` (as salt: trifluoroacetate), 119.6 to 119.8 °C.
`Cl.O=C(N[C@H](CN1CCCC1)c1ccccc1)C1(c2cccnc2)CC1` returned a melting point of 150 to 152 °C.
`COC(=O)c1cccc(Cn2c(=O)oc3ccc(C4(C(=O)N[C@H](CN5CCCC5)c5cccc(O)c5)CC4)cc32)c1`: the melting point was 112 to 113 °C.
To `O=C(N[C@H](CN1CCCC1)c1ccccc1)C1(c2ccc3oncc3c2)CC1` belongs 129 to 130 °C; to `CN(C(=O)C1(c2ccccc2)CC1)[C@H](CN1CCCC1)c1ccccc1.Cl`, 216 to 217 °C.
To `O=C(N[C@H](CN1CCCC1)c1ccccc1)C1(c2ccc3c(c2)NS(=O)(=O)C=C3)CC1` belongs 148 to 150 °C.
Regarding `CC(C)(C)OC(=O)N[C@H]1CCN(C[C@@H](NC(=O)C2(c3cccc(NS(C)(=O)=O)c3)CC2)c2ccccc2)C1`, the melting point was 66.3 to 66.5 °C.
To `CS(=O)(=O)Nc1cccc(C2(C(=O)N[C@@H](CN3CCCC3)c3cccc(O)c3)CC2)c1` belongs 103 to 105 °C; to `CS(=O)(=O)Nc1cccc(C2(C(=O)N[C@@H](CN3CCCC3)c3cccc(OCc4ccccc4)c3)CC2)c1`, 70 to 72 °C; to `CS(=O)(=O)Nc1cccc(C2(C(=O)N[C@H](CN3CCCC3)c3ccccc3)CC2)c1`, 146 to 148 °C.
As for `Cc1ccc(C2(C(=O)N[C@H](CN3CCCC3)c3ccccc3)CC2)cc1NS(C)(=O)=O` (stereo in doubt), the figure is 92 to 94 °C.
To `CN(C(=O)C1(c2ccccc2)CCC1)[C@H](CN1CCCC1)c1ccccc1.Cl` belongs 234 to 235 °C.
